The subject of the test is D54 ERlucT glycosylation luciferase reporter, luminescence, 24 h. Description: blockers of NLG process in reporter cells – D54 ERlucT cells, luminescence, cherry-picks, dose response (AID 624491).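 Note: signal gain reflects blocked N-linked glycosylation of a luciferase reporter; actives raise luciferase signal so AC26 marks activators of the reporter.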

As for `Cc1ccsc1CNc1ncnc2ccc(-c3c(C)noc3C)cc12`, the AC26 is 102 nM.

Turning to `Cc1ccc(S(=O)(=O)N(C)C[C@H]2Oc3ccc(NC(=O)C4CCCCC4)cc3C(=O)N([C@H](C)CO)C[C@H]2C)cc1`, the AC26 is 1140 nM.

On to `NC(N)=N/N=C/c1ccc2cccc(OCc3ccccc3)c2n1`, for which the AC26 is 4150 nM.

As to `CN(C)S(=O)(=O)c1ccc(N2CCCC2)c(C(=O)Nc2nc(-c3ccc(F)cc3)cs2)c1`, the AC26 is 1550 nM.

Turning to `COc1ccc2nc3c(cc2c1)c(NC(=O)CC(C)C)nn3CC(C)C`, the AC26 is 8100 nM.

With `CC(=O)Nc1sc(C)c(C)c1C(=O)OCC(=O)Nc1ccccc1`, the AC26 is 4780 nM.

Take `COc1cc2c(cc1OC)C(c1ccccc1)N(C(=O)c1ccccc1F)CC2` (stereo not given): the AC26 was 1100 nM.

Take `COCCOC(=O)c1[nH]c2c(c1C)C(=O)CC(c1ccco1)C2` (stereo not given): the AC26 was 3540 nM.

With `O=CC1=C(c2ccccc2)Oc2ccccc2O1`, the AC26 was 10300 nM.

Turning to `CCc1ccc(Nc2n[n+](-c3ccccc3)c(-c3ccc(N(CC)CC)cc3)s2)cc1`, the AC26 was 7030 nM.

For `CN=C(SCC(=O)c1cccc(Cl)c1)c1c(O)n(C)c(=O)n(C)c1=O`, the AC26 was 2590 nM.

As to `CCCc1cc(C(=O)N/N=C/c2ccc(C)o2)c2ccccc2n1`, the AC26 is 1040 nM.

On to `COc1cc(C(=O)Nc2cc(C(F)(F)F)ccc2N2CCOCC2)ccc1OCC(=O)N1CCOCC1`, for which the AC26 was 1820 nM.

Regarding `COc1cc2c(cc1OC)CN(c1ccc(-c3ccccc3OC)nn1)CC2`, the AC26 was 3380 nM.

For the compound `Nc1nc(-c2ccccc2)cc(N2CCCCC2)n1`, the AC26 was 4270 nM.

For the compound `CC(=O)/C=C/c1ccccc1Oc1c(F)c(F)nc(F)c1F`, the AC26 is 183 nM.

Turning to `CC=Cc1cc2c(c(=O)o1)C(=O)C(O)C(C)O2` (stereo not given), the AC26 was 5300 nM.

As for `CN(C)CCCN1C(=O)c2cccc3c([N+](=O)[O-])ccc(c23)C1=O`, the AC26 was 169 nM.

Turning to `O=C1[C@H]2[C@@H](c3ccc(F)cc3)N3C(=O)N(c4cccc(Br)c4)C(=O)[C@@]3(Cc3ccccc3)[C@H]2C(=O)N1C1CCCCC1`, the AC26 was 114 nM.

As for `CC(C)Oc1ccc(F)cc1-c1cc(C(=O)Nc2ccc(C(C)(C)C)cc2)[nH]n1`, the AC26 is 2040 nM.

Turning to `CC[C@]12c3[nH]c4cc(CCC(=O)N(C)C)ccc4c3CCN1C(=O)[C@@H](CC(=O)NC/C=C(\C)CCC=C(C)C)C[C@@H]2C(=O)N1CCN(C(=O)c2ccco2)CC1`, the AC26 is 2860 nM.

As to `COc1ccc(NC(=O)CSc2c3c(nc4ccccc24)CCCC3)c(OC)c1`, the AC26 is 9240 nM.

With `CC(=O)Nc1cccc(-c2ccnc3c2CC(C)(C(=O)NCc2ccco2)O3)c1` (stereo not given), the AC26 is 617 nM.

As for `Cc1ccc2nc(SCc3nnc(-c4ccccc4[N+](=O)[O-])o3)c(C#N)cc2c1`, the AC26 was 5790 nM.

On to `O=C(CN1C(=O)/C(=C\c2ccc(F)cc2)Oc2ccccc21)N1CCN(c2ccccn2)CC1`, for which the AC26 was 4740 nM.

With `Cc1cc2c(cc(C(=O)OCC(=O)NCc3ccco3)n2C)s1`, the AC26 is 198 nM.

Regarding `Cc1cc(NCCCn2ccnc2)n2nc(C)c(-c3ccccc3)c2n1`, the AC26 was 1170 nM.

Turning to `Cc1ccc2c(c1)C(=O)N1[C@H]3c4cc(C)ccc4OC[C@@H]3[C@H](c3ccccc3)[C@]1(C)C(=O)N2`, the AC26 is 26.4 nM.

Consider `O=C1N[C@H]2CC=C[C@H]2N(Cc2cccs2)c2ccccc21`, for which the AC26 was 895 nM.

On to `COc1cc(Nc2c3c(nc4ccccc24)CCC3)cc(OC)c1OC`, for which the AC26 is 71.5 nM.

As to `Cc1[nH]nc2c1C(c1ccc(-c3ccc(Cl)cc3)o1)C(C#N)=C(N)O2` (stereo not given), the AC26 was 1140 nM.

Regarding `O=C(NCc1ccco1)c1nn2c(C(F)(F)F)cc(-c3cccs3)nc2c1Br`, the AC26 was 3250 nM.

`CCc1nc2ccc(C(=O)NCCc3c[nH]c4ccccc34)cn2c1N(C=O)CCC(C)C`: the AC26 was 343 nM.

On to `O=C(NCc1ccc(F)c(F)c1)C1Cc2c(-c3ccc4c(c3)OCO4)ccnc2O1` (stereo not given), for which the AC26 is 2750 nM.

Take `CC(=O)Nc1cccc(NC(=O)c2ccccc2OCc2ccccc2)c1`: the AC26 is 1350 nM.

Regarding `COC(=O)[C@@H]1C[C@H]1[C@@H](NP(=O)(c1ccccc1)c1ccccc1)c1ccccc1`, the AC26 was 3650 nM.

As for `COc1cc(C(=O)c2cocc2C(=O)c2ccc3c(c2)OCO3)cc(OC)c1OC`, the AC26 is 111 nM.

Turning to `COCCOC(=O)c1[nH]c2c(c1C)C(=O)CC(c1cccs1)C2` (stereo not given), the AC26 was 1380 nM.

Regarding `Cc1ccc(/C=N/NC(=O)C2COc3ccccc3O2)s1` (stereo not given), the AC26 was 307 nM.

Take `O=C1CCCN1c1ccc(S(=O)(=O)Nc2ccc3c(c2)OCCO3)cc1`: the AC26 is 9890 nM.

Take `Cc1ccc(C(=O)N/C(=C/c2cccs2)C(=O)NCCc2c[nH]c3ccccc23)cc1`: the AC26 is 1080 nM.

In the case of `O=C(c1ccc(CS(=O)c2ccccc2Cl)o1)N1CCN(c2ccccn2)CC1` (stereo not given), the AC26 was 5990 nM.

`CCOc1ccc2nc(NCCNC(=O)Nc3cccc(C)c3)c(C#N)cc2c1`: the AC26 was 4010 nM.

As to `O=C(Cc1ccc(-c2ccccc2)cc1)NCc1cccnc1`, the AC26 was 12400 nM.

With `CCOC(=O)N/N=C/c1ccc(N(CC)CC)cc1O`, the AC26 was 2990 nM.

Regarding `O=c1[nH]c(=O)n([C@H]2C[C@H](O)[C@@H](CO)O2)cc1I`, the AC26 is 5190 nM.

For `COc1cc(/C=C2/CCC/C(=C\c3cc(O)c(OC)c(Cl)c3)C2=O)cc(Cl)c1O`, the AC26 was 2230 nM.

`CC(C)n1cc(NC(=O)c2cc(-c3ccccc3)on2)cn1`: the AC26 was 1230 nM.

For `CCc1ccc2nc3nc(C)cc(C)c3c(N)c2c1`, the AC26 is 2810 nM.

In the case of `COc1ccc(NC(=O)C(=O)NCCC2CCCCN2S(=O)(=O)c2ccccc2)cc1` (stereo not given), the AC26 is 5680 nM.

In the case of `O=C1Nc2ccccc2/C1=C/c1nc2ccccc2c(=O)n1-c1ccc(O)cc1`, the AC26 was 11500 nM.

Turning to `Cc1ccc(NCCN(C)C)c2c(=O)c3cc(O)ccc3sc12`, the AC26 is 84.5 nM.

Turning to `Cc1nnc2c3ccccc3c(-c3cccs3)nn12`, the AC26 is 3170 nM.

For the compound `CC(=O)c1c(C)[nH]c(C(=O)Nc2cccc(S(=O)(=O)N3CCCC3)c2)c1C`, the AC26 was 2610 nM.

As to `O=C(Cn1ncc(Cl)c(Cl)c1=O)N1CCOCC1`, the AC26 is 1220 nM.

For `COc1cc(C2=NOC(C(=O)NCc3ccco3)C2)cc(OC)c1OC` (stereo not given), the AC26 was 1030 nM.

`COc1ccc(Nc2c3ccccc3nc3ccccc23)cc1`: the AC26 is 1020 nM.

Turning to `CCOc1ccc(OCC(=O)N(CCC2=CCCCC2)c2c(N)n(Cc3ccccc3)c(=O)[nH]c2=O)cc1`, the AC26 is 4380 nM.

Take `C=CCn1c(O)c(C(CC)=NC(C)c2ccccc2)c(=O)[nH]c1=O` (stereo not given): the AC26 was 3140 nM.

As for `O=C(NCC1CCCO1)c1cc(-c2ccccc2)on1` (stereo not given), the AC26 is 6450 nM.

Consider `Cc1ccc2c(C)c3ccc4ccccc4c3c[n+]2c1`, for which the AC26 is 667 nM.

Turning to `COc1ccc(Cl)cc1NC(=O)Nc1ccc(C(=O)N2CCCC2)cc1`, the AC26 is 4030 nM.

For the compound `COc1ccc(NC(=O)c2cc3c(=O)n(C)c4ccccc4c3n2C)cc1OC`, the AC26 is 2940 nM.

Turning to `COc1ccc(-c2n[nH]c3c2CN(C(=O)c2ccc(OC)c(OC)c2)CC3)cc1`, the AC26 was 1760 nM.

Regarding `COc1cccc(C(=O)Nc2sc3c(c2C#N)CCN(C(C)=O)C3)c1`, the AC26 was 9.19 nM.

As to `C=C1c2nc3ccccc3n2C=C(c2ccc(C)cc2)N1c1ccccc1`, the AC26 was 9580 nM.

Consider `COc1cc(C)c2sc3ccccc3c(=O)c2c1NCCN(C)C`, for which the AC26 is 468 nM.

Take `CC(CC(=O)Nc1ccc2c(c1)c(=O)n(C)n2-c1cccs1)c1ccccc1` (stereo not given): the AC26 was 6270 nM.

Regarding `Cc1ccc(Oc2ccc(S(=O)(=O)N3CCOCC3)cc2C(N)=O)c(-n2nc3ccccc3n2)c1`, the AC26 is 2770 nM.

`CCN(CC)S(=O)(=O)c1cccc(C(=O)OCC(=O)Nc2ccc3c(c2)c2ccccc2n3CC)c1`: the AC26 was 4110 nM.

As to `Cc1cc([N+](=O)[O-])ccc1Nc1nc2ccccc2n2cnnc12`, the AC26 was 8280 nM.

Take `CC(=O)N(C1=C(Cl)C(=O)c2ccccc2C1=O)C1CCCCC1`: the AC26 was 31.1 nM.

As to `Cc1cccc2c(C(=O)N3CCN(c4ccccc4)CC3)cc(-c3ccncc3)nc12`, the AC26 was 198 nM.

Consider `CN(C)S(=O)(=O)c1ccc(N2CCCC2)c(C(=O)Nc2cccc(F)c2)c1`, for which the AC26 was 931 nM.

Take `O=C(N=Nc1c(O)[nH]c2ccc(Br)cc12)c1cc(-c2cccs2)nc2ccccc12`: the AC26 is 4850 nM.

As for `Cc1cc(C)c(NC(=O)CSc2nc(COc3ccccc3)nc3ccccc23)c(C)c1`, the AC26 is 5220 nM.

Regarding `Cc1nnc2c(NC(C)C)nc3ccccc3n12`, the AC26 was 4090 nM.

As for `CCOC(=O)c1nnc(-c2ccc(C)cc2)nc1Sc1ccccc1Cl`, the AC26 is 6170 nM.

Turning to `COc1cc(C(=O)N/N=C/c2ccccn2)cc(OC)c1OC`, the AC26 is 1160 nM.

On to `O=C(COc1ccc(C(=O)c2ccccc2)cc1)NCc1ccc(F)cc1`, for which the AC26 was 1870 nM.

As for `Cc1noc(C)c1-c1ccc(C(=O)NCCc2ccccc2)c2occc12`, the AC26 is 4410 nM.

As for `Cc1cc(C)c2nc3nc(C)cc(C)c3c(N)c2c1`, the AC26 was 145 nM.

Turning to `COc1cc2nc(N(C)C)nc(N)c2cc1OC`, the AC26 was 3660 nM.

For `CCN(CC)CCNc1cccc2sc3ccccc3c(=O)c12`, the AC26 was 4840 nM.

As for `CCOc1ccc(OCC)c(NC(=O)c2nnn(CC(=O)Nc3cc(C)cc(C)c3)c2N)c1`, the AC26 was 6440 nM.

For the compound `CCCCCCC(=O)N(O)C1CC(=O)N(c2ccc(F)cc2)C1=O` (stereo not given), the AC26 was 1290 nM.

As to `Cc1cc(-c2nnc3n2N=C(c2ccc(-c4ccccc4)cc2)CS3)n[nH]1`, the AC26 is 2760 nM.

`COc1ccc2oc(-c3ccccc3[N+](=O)[O-])cc(=O)c2c1`: the AC26 is 568 nM.

For the compound `COc1cc(C(=O)NCC(=O)NCCN2C(=O)S/C(=C\c3ccccc3Cl)C2=O)cc(OC)c1OC`, the AC26 is 2430 nM.

Take `COc1ccc(/C=N/NC(=O)c2nc(-c3ccccc3)cc(-c3ccccc3)n2)cc1O`: the AC26 is 685 nM.

Consider `COc1cc(C(=O)Nc2ccc3c(c2)CCN3C(C)=O)cc(OC)c1OC`, for which the AC26 was 1240 nM.

Regarding `Cn1c(=O)[nH]c(=O)c2c1nc(N1CCN(Cc3ccccc3)CC1)n2CCCc1ccccc1`, the AC26 was 436 nM.

As to `CC1(C(=O)NCc2ccco2)Cc2c(-c3cccc(C(F)(F)F)c3)ccnc2O1` (stereo not given), the AC26 is 7710 nM.

In the case of `Cc1cc(C)n(-c2nnc3n2N=C(c2c[nH]c4ccccc24)CS3)n1`, the AC26 was 3510 nM.

For `COc1ccc2c(c1)CCc1c(C(=O)Nc3cc(C)n(Cc4ccc(Cl)cc4)n3)noc1-2`, the AC26 is 3370 nM.

Source of the values: PubChem BioAssay AID624491 (Broad Institute, 2012).
